# Reference: patent US20230172897A1, “METHODS OF TREATING BREAST CANCERS WITH SELECTIVE ANDROGEN RECEPTOR MODULATORS AND ADDITIONAL THERAPEUTIC AGENTS” (VERU, INC., priority 2021, published 2023)
# Key:
# AR = biological target: T1, AR (Homo sapiens, UniProt P10275); assay: AR transactivation (GRE-LUC) in HEK-293 or MDA-MB-231 cells; assay type: cell-based; set-up: expressed in transfected cells; details: cells transfected with AR
# T1 sequence (P10275 1-920): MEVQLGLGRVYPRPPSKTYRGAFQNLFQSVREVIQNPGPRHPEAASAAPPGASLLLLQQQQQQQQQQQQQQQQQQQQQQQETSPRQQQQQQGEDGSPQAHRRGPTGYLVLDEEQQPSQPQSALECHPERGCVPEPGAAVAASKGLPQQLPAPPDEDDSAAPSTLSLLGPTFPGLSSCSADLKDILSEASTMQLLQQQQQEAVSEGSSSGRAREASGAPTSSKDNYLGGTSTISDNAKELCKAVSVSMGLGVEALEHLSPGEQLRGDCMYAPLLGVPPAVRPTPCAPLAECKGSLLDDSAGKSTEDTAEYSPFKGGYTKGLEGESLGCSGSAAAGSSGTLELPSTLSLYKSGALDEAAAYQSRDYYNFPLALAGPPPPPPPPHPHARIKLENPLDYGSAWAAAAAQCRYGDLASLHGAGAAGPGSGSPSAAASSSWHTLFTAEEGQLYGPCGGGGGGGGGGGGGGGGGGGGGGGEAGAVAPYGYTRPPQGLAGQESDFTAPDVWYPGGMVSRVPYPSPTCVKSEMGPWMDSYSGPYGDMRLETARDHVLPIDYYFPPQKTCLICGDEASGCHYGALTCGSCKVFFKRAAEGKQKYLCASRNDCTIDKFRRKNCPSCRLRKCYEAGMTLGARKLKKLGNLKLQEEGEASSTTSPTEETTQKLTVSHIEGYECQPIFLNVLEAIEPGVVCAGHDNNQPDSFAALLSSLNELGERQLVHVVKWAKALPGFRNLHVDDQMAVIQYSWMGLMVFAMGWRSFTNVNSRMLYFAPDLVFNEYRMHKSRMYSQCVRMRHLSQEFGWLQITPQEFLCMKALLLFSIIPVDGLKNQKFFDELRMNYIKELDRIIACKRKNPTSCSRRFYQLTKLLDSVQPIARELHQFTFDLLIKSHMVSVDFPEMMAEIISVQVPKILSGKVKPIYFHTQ
# Method: Though AR transactivation assay was performed in HEK-293 cells, the ability of ligands to function as agonists or antagonists depends on cellular microenvironment. […] The cells were treated 24 h after transfection and luciferase assay performed 48 h after transfection.
# MDA-MB-231-AR cells = assay: Morphology of MDA-MB-231 cells stably transfected with AR; assay type: cell-based; details: 3 days
# Method: MDA-MB-231 cells were stably transfected with AR using lentivirus. […] Live cells were visualized using a light-microscope and photographed. The cells were imaged at the same magnification and under the same microscopic conditions.
# MDA-MB-231 cells were stably transfected with AR using lentivirus and were treated with vehicle or AR agonists at the indicated concentrations. At the end of 3 days of incubation, the cells were imaged under a microscope (40×).
# ERα, ERβ, GR, or MR = assay: Cross-reactivity with other nuclear hormone receptors (summary); assay type: cell-based, Rat; details: agonist and antagonist mode
# Method: In order to determine whether SARM compounds of Formulae I-XIV as described hereinaffected other nuclear hormone receptor signaling, the ability of a compound represented by Formula VIII to stimulate (agonist) or inhibit (antagonist) ERα-, ERβ-, GR-, PR-, or MR-mediated transcriptional activation, was analyzed.
# Rat GR, MR, PR, ER-α and ER-β were individually cloned into a pCR3.1 vector backbone. Sequencing was performed to verify the absence of any mutations. HEK-293 cells were plated at 90,000 cells per well of a 24 well plate in Dulbecco's Minimal Essential Media supplemented with 5% charcoal-stripped FBS. The cells were transfected using Lipofectamine (Invitrogen, Carlsbad, Calif.) with 0.25 μg GRE-LUC for GR, MR and PR and ERE-LUC for ER-α and ER-β, 0.5 ng CMV-LUC (renilla luciferase) and 12.5-25 ng of the respective expression vector for each receptor. […] Luciferase assays were performed 48 h after transfection. Transcriptional activation values are represented as firefly luciferase normalized to renilla luciferase.
# [1] = system: MDA-MB-231 breast cancer cells stably transfected with AR; assay: Proliferation (Coulter counter) of MDA-MB-231 cells stably transfected with AR; assay type: cell-based; details: 6 days
# Method: MDA-MB-231 cells stably transfected with AR using lentivirus were treated with the indicated ligands for 6 days and the number of cells counted using Coulter counter.
# [2] = system: MDA-MB-231-AR triple negative breast cancer cells; assay: MDA-MB-231-AR xenograft in nude mice; assay type: in vivo; details: for body weight / tumor weights: all doses
# Method: MDA-MB-231-AR triple negative breast cancer cells (2 million cells/mouse; MDA-MB-231 cells stably transfected with AR using lentivirus) were mixed with matrigel (1:1) and injected subcutaneously into the flanks of intact female nude mice (n=5/group). When the tumors reached 150-200 mm^3, the animals were separated into two groups, one receiving vehicle and the other receiving 30 mg/kg Formula VIII orally. Tumor volume was measured thrice weekly and % tumor growth inhibition (TGI) was calculated. At the end of 35 days of treatment, the animals were sacrificed, tumors excised, weighed, and collected for various analyses. Blood was collected and serum separated for drug concentration measurement.
SMILES,AR function (agonist/antagonist) in transactivation (AR),morphology of MDA-MB-231-AR cells (more anchorage-dependent phenotype) (MDA-MB-231-AR cells),"receptor-mediated transactivation of ERα, ERβ, GR, or MR (ERα, ERβ, GR, or MR)",proliferation of MDA-MB-231 cells stably transfected with AR [1],uterus weight ([2]; 30 mg/kg orally),"reduction of tumor weights ([2]; 30 mg/kg orally, 35 days)","toxicity / body weight ([2]; 30 mg/kg orally, 35 days)","tumor growth inhibition (TGI) ([2]; 30 mg/kg orally, 35 days) [%]",body weight [2],tumor weights [2],"TGI ([2]; all doses tried: 5, 10 mg per kg) [%]","TGI ([2]; all doses tried: 5, 10, 30 mg per kg) [%]"
"C[C@](O)(COc1ccc(C#N)cc1)C(=O)Nc1ccc(C#N)c(Cl)c1 [Formula VIII, (S)—N-(3-chloro-4-cyanophenyl)-3-(4-cyanophenoxy)-2-hydroxy-2-methylpropanamide]",agonists,altered the morphology,do not stimulate or inhibit,inhibited the proliferation,increased,more than 50%,without any associated toxicity or changes in body weight,~75,increase of body weight,reduced,~85,
"C[C@](O)(COc1ccc(C#N)cc1)C(=O)Nc1ccc(C#N)c(C(F)(F)F)c1 [Formula IX, (S)—N-(4-Cyano-3-(trifluoromethyl)phenyl)-3-(4-cyanophenoxy)-2-hydroxy-2-methylpropanamide]",agonists,altered the morphology,do not stimulate or inhibit,inhibited the proliferation,,,,,increase of body weight,reduced,,~85
